Data on 17 compounds can be found in ChEMBL document CHEMBL4699488, “Probing the B- & C-rings of the antimalarial tetrahydro-β-carboline MMV008138 for steric and conformational constraints” (Bioorg Med Chem Lett, 2020).

In the first assay the test system is Plasmodium falciparum. The experiment in a line: Antimalarial activity against Plasmodium falciparum Dd2 incubated for 72 hrs by SYBR green dye based assay. It is filed as functional, organism-based. The conditions noted are these: Dd2, 72 h.
Regarding `O=C(O)[C@@H]1Cc2c([nH]c3ccccc23)[C@]2(CCc3ccccc32)N1`, the EC50 (commonly the concentration giving half of the maximal effect) is more than 10 µM. `C[C@]1(c2ccccc2Cl)N[C@H](C(=O)O)Cc2c1[nH]c1ccccc21` showed an EC50 of more than 10 µM.

Compound `C[C@]1(c2ccc(Cl)cc2Cl)N[C@H](C(=O)O)Cc2c1[nH]c1ccccc21` displayed an EC50 of more than 10 µM. Turning to `C[C@@]1(C(=O)O)Cc2c([nH]c3ccccc23)[C@@H](c2ccc(Cl)cc2Cl)N1` (racemic), the EC50 was more than 10 µM.

`Cc1ccc([C@H]2N[C@H](C(=O)O)Cc3c2[nH]c2ccccc32)c(Cl)c1` came in with an EC50 of 0.41 µM. In other words, the sub-micromolar range.

`C[C@]1(c2ccccc2)N[C@H](C(=O)O)Cc2c1[nH]c1ccccc21`: the EC50 was more than 10 µM. `O=C(O)[C@H](Cc1c[nH]c2ccccc12)NCc1ccc(Cl)cc1Cl` gave an EC50 of more than 10 µM. In turn, `C[C@]1(c2ccc(Cl)cc2)N[C@H](C(=O)O)Cc2c1[nH]c1ccccc21` gave an EC50 of more than 10 µM. For `Cn1c2c(c3ccccc31)C[C@@H](C(=O)O)N[C@@H]2c1ccc(Cl)cc1Cl`, the EC50 amounted to 8 µM.

For `Cc1ccc([C@H]2N[C@H](C(=O)O)Cc3c2[nH]c2ccccc32)c(C)c1`, a half-maximal effect (EC50) was put at 10 µM.

With `O=C(O)[C@@H]1Cc2c([nH]c3ccccc23)[C@@H](c2ccc(Br)cc2Cl)N1`, the response was half-maximal at 0.32 µM (EC50). In the case of `O=C(O)[C@@H]1Cc2c([nH]c3ccccc23)CN1Cc1ccc(Cl)cc1Cl`, the EC50 is more than 10 µM.

The test system of the next assay is Plasmodium falciparum. The experiment in a line: Antimalarial activity against Plasmodium falciparum Dd2 at 10 uM incubated for 72 hrs by SYBR green dye based assay relative to control. It is filed as functional.
Conditions: not given
Take `CN1[C@H](c2ccc(Cl)cc2Cl)c2[nH]c3ccccc3c2C[C@H]1C(=O)O`: the inhibition (as a rule, the relative decrease from the control value, in per cent) at 10 µM worked out at 65%.

System in the next assay: not listed separately
The experiment in a line: Inhibition of Plasmodium falciparum IspD.
Conditions: not given
As for `O=C(O)[C@@H]1Cc2c([nH]c3ccccc23)[C@@H](c2ccccc2)N1`, the IC50 – broadly, the midpoint of a concentration-inhibition curve – is more than 5 µM. `Cc1ccc([C@H]2N[C@H](C(=O)O)Cc3c2[nH]c2ccccc32)c(Cl)c1` returned an IC50 of 0.082 µM. `O=C(O)[C@@H]1Cc2c([nH]c3ccccc23)[C@@H](c2ccc(Cl)cc2)N1` returned an IC50 of 0.51 µM. Against the preceding compound, the IC50 is about 6.2-fold higher. As for `Cc1cc(Cl)ccc1[C@H]1N[C@H](C(=O)O)Cc2c1[nH]c1ccccc21`, the IC50 stood at 0.26 µM.

As for `O=C(O)[C@@H]1Cc2c([nH]c3ccccc23)[C@@H](c2ccccc2Cl)N1`, half-maximal inhibition (IC50) was put at 1 µM. For the compound `Cc1ccc([C@H]2N[C@H](C(=O)O)Cc3c2[nH]c2ccccc32)c(C)c1`, the IC50 was 1 µM. On to `O=C(O)[C@@H]1Cc2c([nH]c3ccccc23)[C@@H](c2ccc(Br)cc2Cl)N1`, for which half-maximal inhibition (IC50) required 0.034 µM.
